In patent US20230052740A1, “MODULATORS OF CIRCADIAN RHYTHMS AND USES THEREOF” (The Regents of the University of California, priority 2019, published 2023):
Like-named read-outs stand apart in the source and are kept apart here.

Assays:
[1] = Mouse pharmacokinetic (PK) studies; type: in vivo; conditions: for Brain/Plasma Ratio: 30′; for T1/2: plasma
C3H/HeN mice [2] = test: Phase shift of circadian running wheel activity onset in constant dark; type: in vivo, mouse; conditions: for advance of the onset of activity: 0.9 μg/mouse (~30 μg/Kg) s.c., CT10 (dusk), 3 days; for advance of the onset of running wheel activity: 30 μg/mouse (1 mg/Kg) s.c., CT10, WT; for EC50 of in vivo activity (circadian phase shift): mouse
Excerpt: (§1) Male and female C3H/HeN (C3H) wild-type (WT), MT1 knockout (MT1KO), and MT2 knockout (MT2KO) mice (average 6.28 months) used in this study were raised in our breeding colony at University at Buffalo. […] Genotype was confirmed using tail samples at the end of each experiment and was verified periodically during the tenure of the colony. The strains of mice in our breeding colony were re-derived periodically by backcrossing with WT mice to reduce genetic drift.
(§2) Mice were group housed (3-5 per cage) with corncob bedding in polycarbonate translucent cages (30×19 cm) and maintained in a 14/10 light-dark (LD) cycle (Zeitgeber time 0 or ZT0 corresponds to Lights ON and ZT 14 to Lights OFF) in temperature and humidity controlled rooms with ad libitum access to food and water in the Laboratory Animal Facility at the University at Buffalo. Light levels were 200-300 lux at the level of the cage. Treatments and animal care performed in the dark were under a dim red safelight (15 watts, Kodak 1A filter) with illuminance of less than 3-5 lux (Benloucif, S. & Dubocovich, M. L. J Biol Rhythms 11, 113-125, (1996). All experimental procedures using mice were conducted in accordance with guidelines set forth by the National Institutes of Health and approved by the University at Buffalo Institutional Animal Care and Use Committee.
(§3) Circadian rhythm phase was determined for each mouse using the onset of running wheel activity defined as CT12 (Circadian Time 12). Running wheel activity was measured continuously via magnetic microswitches detecting wheel revolutions with a computer equipped with Clocklab data collection Software™ (Actimetrics: Wilmette, Ill.). All actigraphy data was visualized and analyzed using ClockLab™ and MATLAB™ software. All mice were individually housed in cages (33×15 cm) equipped with running wheels in light-tight ventilated cabinets with controlled temperature and LD cycles (Phenome Technologies: Skokie, Ill.). Male and female mice were housed in separate cabinets for all experiments.
Following a period of 14 days in a LD cycle mice were placed in constant dark (DD) beginning at ZT12 (dark onset). Mice were keptin DD (2-3 weeks) untilastable free-running phase of running wheel activity rhythm onset was established. Circadian times of treatment were predicated from best fit lines of running wheel activity onsets for of running either pre (7-14 days) and post (7-14 days) treatment. Treatment times were at CT10 (CT9-11) and CT2 (CT1-3) within a 3 hour window. […] Vehicle or drug treatments were repeated for 3 consecutive days at the selected circadian time following the three-pulse treatment protocol described (Benloucif, supra). Phase shifts were quantified using the best-fit lines for onsets of activity during pre and post treatment periods. Differences are characterized as phase delays (pre-treatment ahead of post treatment best fit line onset) or phase advances (post treatment ahead of pre treatment best fit line onset) of running wheel activity onset rhythms.
All statistical analyses as described in further detail for each experiment were conducted using GraphPad Prism 8™ (La Jolla, Calif.). All data sets were visualized for normality using QQ plots of predicted vs. actual residuals. Actigraphy data was generated for visualization blind to treatment prior to the quantification and statistical analysis stages. […] Data in FIGS. 4F & 4G were compared via a two-way ANOVA (3×2: genotype x treatment) with Tukey's post hoc analyses (P<0.05). Comparisons for FIG. 4L, FIGS. 11H-11J were made by mixed effect two-way repeated measures ANOVA (treatment×time) with Sidak's post hoc test (P<0.05). Number of days to re-entrainment was compared via one-way ANOVA or two-way ANOVA for FIG. 4M & FIG. 4N with a Dunnet's & Tukey's post hoc test (P<0.05) respectively. P values and values for statistical analyses are included in figure legends. […]

hMT2 = test: 2-[125I]-iodomelatonin competition binding, CHO cell membranes; conditions: in 2-[125I]-iodomelatonin binding assays
Description: (§4) For receptor binding studies, '7447 was dissolved in 50% DMSO/50% ethanol for 13 mM stock solution, diluted 1/10 in 100% ethanol then 1/10 again in 50% ethanol/50% Tris-HCl buffer. Both '3384 and '4226 were dissolved in 100% ethanol for 13 mM stock solutions and then diluted 1/10 in 50% ethanol/50% Tris-HCl buffer. Further dilutions were done in Tris-HCl buffer.
(§5) Assays were incubated for 1 hour at 25° C. Bound radioligand was separated from freeby rapidvacuum filtration using glass microfiber filters (Whatman, Krackeler Scientific, Inc., Albany N.Y., USA) saturated in 0.5% polyethylenimine solution.
(§6) Affinity shifts or lack thereof with G protein inactivation indicate apparent efficacy (Lefkowitz, R. J. et al., J Biol Chem 251, 4686-4692, 1976) as ligands are classified as agonists (ΔpKi% MLT>20%), antagonists (ΔpKi% MLT<20%, >−20%), or inverse agonists (ΔpKi% MLT<−20%) accordingly.

C3H/HeN mice [3] = test: Re-entrainment of running wheel activity after 6 h advance of dark onset (jet-lag model); type: in vivo; conditions: 30 μg/mouse s.c., in words; for rate of re-entrainment to the new light-dark cycle: 3 days, WT
Excerpt: as §1, §2, §3
Male and female C3H WT, MT1KO, and MT2KO mice (3 to 6 months) were maintained under a 12:12 LD cycle for at least 2 weeks prior experimental manipulations to allow stable entrainment to dark onset before advance of the LD cycle. Actigraphy data was recorded as described above and all experiment protocols performed as described (Dubocovich, M. L. et al., J Pineal Res 39, 113-120, 2005). On the first day of treatment, the dark onset was advanced 6 h. […] Post treatment, mice were given 14-20 days to re-entrain running wheel activity onsets to the new dark onset. Using exported running wheel activity onsets from actograms, onset hours advanced each day were determined by subtracting this value each day from the average onset of running wheel activity for 3 days prior to treatment for each mouse. Further, using the data from this calculation combined with visualization of actograms, the number of days to reach stable re-entrainment was determined for each mouse.
All statistical analyses as described in further detail for each experiment were conducted using GraphPad Prism 8™ (La Jolla, Calif.). All data sets were visualized for normality using QQ plots of predicted vs. actual residuals. Actigraphy data was generated for visualization blind to treatment prior to the quantification and statistical analysis stages. […] Data in FIGS. 4F & 4G were compared via a two-way ANOVA (3×2: genotype x treatment) with Tukey's post hoc analyses (P<0.05). […]

318 other GPCRs = test: PRESTO-Tango GPCR-ome counter-screen, agonist mode; type: cell-based; conditions: arrestin recruitment Tango, in words
Description: Screening of compounds in the PRESTO-Tango GPCR-ome was accomplished as previously described (Kroeze, supra). with several modifications. First, HTLA cells were plated in DMEM with 10% FBS and 10 U/mL penicillin-streptomycin. Next, the cells were transfected using an in-plate PEI method (Longo, P. A. et al., Methods Enzymol 529, 227-240, 2013). PRESTO-Tango receptor DNAs were resuspended in OptiMEM and hybridized with PEI prior to dilution and distribution to 384-well plates and subsequent addition to cells. After overnight incubation, drugs were added to cells without replacement of the medium. The remaining steps of the PRESTO-Tango protocol were followed as previously described.

hMT1 = hMT1 (Homo sapiens, UniProt P48039); test: 2-[125I]-iodomelatonin competition binding, CHO cell membranes; conditions: read-out: Ki at MT1
Sequence of hMT1 (P48039 whole entry): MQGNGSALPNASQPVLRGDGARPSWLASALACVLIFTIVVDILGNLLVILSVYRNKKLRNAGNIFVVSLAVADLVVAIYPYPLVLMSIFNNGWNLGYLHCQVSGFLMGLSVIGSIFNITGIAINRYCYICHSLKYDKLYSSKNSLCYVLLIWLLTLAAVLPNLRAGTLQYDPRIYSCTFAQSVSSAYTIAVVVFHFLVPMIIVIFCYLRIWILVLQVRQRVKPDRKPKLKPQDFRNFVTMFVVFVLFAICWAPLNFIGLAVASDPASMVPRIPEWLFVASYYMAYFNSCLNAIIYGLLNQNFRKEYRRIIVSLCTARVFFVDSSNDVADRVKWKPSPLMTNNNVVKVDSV
Description: as §4, §5, §6

Row | Compound | AUC [1] [ng·h/mL] | CL [1] [mL/min/kg] | Cmax [1] [ng/mL] | Vss [1] [L/kg] | Brain/Plasma Ratio [1] | T1/2 [1] [min] | effect on circadian phase (C3H/HeN mice [2]; 0.9 or 30 μg/Kg doses, CT10, in words) | MT2/MT1 selectivity (hMT2) | advance of the onset of activity (C3H/HeN mice [2]; WT) | advance of the onset of running wheel activity (C3H/HeN mice [2]; in words) | EC50 of in vivo activity (circadian phase shift) (C3H/HeN mice [2]) [µg/kg] | rate of re-entrainment to the new light-dark cycle (C3H/HeN mice [3]) | off-target agonist activity (318 other GPCRs) | Ki (hMT1; in the absence of GTP) [nM] | Ki (hMT1; with GTP (100 μM)) [nM] | phase shift of RW activity onset at CT2 (C3H/HeN mice [2]; 30 μg/mouse s.c., CT2 (dawn), WT, MT1KO, MT2KO, in words) | phase advance activity in MT1KO mice (C3H/HeN mice [2]; 30 μg/mouse s.c., CT10, MT1KO, in words) | phase advance activity in MT2KO mice (C3H/HeN mice [2]; 30 μg/mouse s.c., CT10, MT2KO, in words) | effect on re-entrainment in MT1KO mouse (C3H/HeN mice [3]; MT1KO) | effect on re-entrainment in MT2KO mice (C3H/HeN mice [3]; MT2KO)
1 | COc1ccc(Br)c(CNc2cccnc2)c1 [ZINC128734226] | 282.1 | 117.9 | 1922.8 | 1.11 | 1.58 (30′) | 17.4 | did not significantly affect circadian phase | 54 |  |  |  |  |  |  |  |  |  |  |  | 
2 | CC(C)c1ccc(CNc2cccc(-c3ncn[nH]3)c2)cc1 [ZINC157673384] | 563.8 | 58.48 | 1299.6 | 1.38 | 1.43 (30′) | 19.2 |  |  | approximately 1 hour | advanced the onset of running wheel activity with an amplitude equivalent to, or even larger than that of melatonin | 30 | decelerated re-entrainment | Neither of the two inverse agonists had significant activity against any of the 318 receptors | 938 | 63 |  |  |  |  | 
3 | Clc1ccc(CNc2cccc(-c3nnc[nH]3)c2)c(Br)c1 [ZINC555417447] | 494.5 | 67.11 | 1948.6 | 1.11 | 3.03 (30′) | 16.2 |  |  | approximately 1 hour | advanced the onset of running wheel activity with an amplitude equivalent to, or even larger than that of melatonin | 30 | decelerated re-entrainment | Neither of the two inverse agonists had significant activity against any of the 318 receptors | 304 | 7.5 | did not phase shift RW activity onset | ablation of the activity | maintenance of its activity | eliminated | greater deceleration
